In PubChem BioAssay (NCI):
Several values for one entry are separate records, joined by “and”; a condition that tells them apart may be missing. Equal values may be shown once.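 Five compound concentrations were applied to cells in 96-well plates for 48 hours; endpoints were derived by simple linear interpolation of the resulting dose-response curve. GI50 is the concentration that inhibits growth by half. TGI is the concentration that stops growth completely.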

Experiments:
Assay in all cases: NCI-60 cell line screen, 48 h
OVCAR-4 ovarian = system: OVCAR-4 ovarian
SF-539 CNS = system: SF-539 CNS
MCF7 breast = system: MCF7 breast
NCI-H226 lung = system: NCI-H226 lung
SK-MEL-2 melanoma = system: SK-MEL-2 melanoma
COLO 205 colon = system: COLO 205 colon
SNB-19 CNS = system: SNB-19 CNS
MDA-N = system: MDA-N
UACC-257 melanoma = system: UACC-257 melanoma
OVCAR-3 ovarian = system: OVCAR-3 ovarian
HCT-15 colon = system: HCT-15 colon
T-47D breast = system: T-47D breast
SK-OV-3 ovarian = system: SK-OV-3 ovarian
HCC-2998 colon = system: HCC-2998 colon
A498 renal = system: A498 renal
SW-620 colon = system: SW-620 colon
SN12C renal = system: SN12C renal
MDA-MB-435 = system: MDA-MB-435
EKVX NSCLC = system: EKVX NSCLC
CCRF-CEM leukemia = system: CCRF-CEM leukemia
M14 melanoma = system: M14 melanoma
SF-295 CNS = system: SF-295 CNS
IGROV1 ovarian = system: IGROV1 ovarian
786-0 renal = system: 786-0 renal
NCI-H460 lung = system: NCI-H460 lung
HT29 colon = system: HT29 colon
HCT-116 colon = system: HCT-116 colon
SK-MEL-28 melanoma = system: SK-MEL-28 melanoma
HOP-62 NSCLC = system: HOP-62 NSCLC
NCI-H23 lung = system: NCI-H23 lung
KM12 colon = system: KM12 colon
RPMI-8226 leukemia = system: RPMI-8226 leukemia
SF-268 CNS = system: SF-268 CNS
RXF 393 renal = system: RXF 393 renal
SNB-75 CNS = system: SNB-75 CNS
HS 578T breast = system: HS 578T breast
K-562 leukemia = system: K-562 leukemia
UACC-62 melanoma = system: UACC-62 melanoma
NCI/ADR-RES ovarian = system: NCI/ADR-RES ovarian
LOX IMVI melanoma = system: LOX IMVI melanoma
TK-10 renal = system: TK-10 renal
CAKI-1 renal = system: CAKI-1 renal
NCI-H522 lung = system: NCI-H522 lung
PC-3 prostate = system: PC-3 prostate
OVCAR-5 ovarian = system: OVCAR-5 ovarian
MALME-3M melanoma = system: MALME-3M melanoma
OVCAR-8 ovarian = system: OVCAR-8 ovarian
ACHN renal = system: ACHN renal
BT-549 breast = system: BT-549 breast
HOP-92 NSCLC = system: HOP-92 NSCLC
UO-31 renal = system: UO-31 renal
SR leukemia = system: SR leukemia
DU-145 prostate = system: DU-145 prostate
MDA-MB-231 breast = system: MDA-MB-231 breast
A549 NSCLC = system: A549 NSCLC
SK-MEL-5 melanoma = system: SK-MEL-5 melanoma
MOLT-4 leukemia = system: MOLT-4 leukemia
HL-60(TB) leukemia = system: HL-60(TB) leukemia
U251 CNS = system: U251 CNS

CN1C=c2c3c(ccc2=C2C=CC4C=C5OCOC5=CC4=C21)OCO3 (stereo not given)
TGI (OVCAR-4 ovarian): 3.53 µM and 7.5 µM | TGI (SF-539 CNS): 3.18 µM and 4.8 µM | GI50 (MCF7 breast): 1480 nM and 4400 nM | TGI (MCF7 breast): 2.89 µM and 17.4 µM | GI50 (NCI-H226 lung): 1.82 µM and 7.18 µM | TGI (NCI-H226 lung): 3.36 µM and 14.7 µM | TGI (SK-MEL-2 melanoma): 3.53 µM and 5.87 µM | TGI (COLO 205 colon): 2.78 µM and 3.5 µM | GI50 (SNB-19 CNS): 1.65 µM and 12.2 µM | TGI (SNB-19 CNS): 3.07 µM and 25 µM | TGI (MDA-N): 2.79 µM and 3.98 µM | TGI (UACC-257 melanoma): 3.26 µM and 10.1 µM | TGI (OVCAR-3 ovarian): 2160 nM and 3200 nM | TGI (HCT-15 colon): 2.89 µM and 3.2 µM | TGI (T-47D breast): 4.31 µM and 5.01 µM | GI50 (SK-OV-3 ovarian): 1.85 µM and 12.7 µM | TGI (SK-OV-3 ovarian): 3.96 µM and 25.4 µM | GI50 (HCC-2998 colon): 1.56 µM and 6.55 µM | TGI (HCC-2998 colon): 3.24 µM and 16.2 µM | GI50 (A498 renal): 2.24 µM and 14.1 µM | TGI (A498 renal): 5.04 µM and 27.1 µM | GI50 (SW-620 colon): 1250 nM | TGI (SW-620 colon): 2520 nM and 2990 nM | TGI (SN12C renal): 2.9 µM and 3.87 µM | TGI (MDA-MB-435): 2.45 µM and 3.61 µM | GI50 (EKVX NSCLC): 1.72 µM and 13.5 µM | TGI (EKVX NSCLC): 3.16 µM and 26.3 µM | GI50 (CCRF-CEM leukemia): 210 nM and 1030 nM | TGI (M14 melanoma): 2.55 µM and 3.78 µM | GI50 (SF-295 CNS): 1.79 µM and 8.51 µM | TGI (SF-295 CNS): 3.2 µM and 21.9 µM | TGI (IGROV1 ovarian): 3.05 µM and 4.01 µM | TGI (786-0 renal): 2650 nM and 3060 nM | GI50 (NCI-H460 lung): 1630 nM and 3160 nM | TGI (NCI-H460 lung): 3.18 µM and 9.8 µM | TGI (HT29 colon): 3.02 µM and 5.1 µM | TGI (HCT-116 colon): 2390 nM and 3190 nM | TGI (SK-MEL-28 melanoma): 3.07 µM and 7.28 µM | TGI (HOP-62 NSCLC): 2.97 µM and 6.29 µM | TGI (NCI-H23 lung): 2.95 µM and 10.3 µM | GI50 (KM12 colon): 1270 nM and 4060 nM | TGI (KM12 colon): 2.8 µM and 13.2 µM | GI50 (RPMI-8226 leukemia): 625 nM and 2240 nM | TGI (RPMI-8226 leukemia): 1.86 µM and 6.79 µM | TGI (SF-268 CNS): 3.46 µM and 6.76 µM | TGI (RXF 393 renal): 2.57 µM and 4.4 µM | TGI (SNB-75 CNS): 3.49 µM and 14.6 µM | TGI (HS 578T breast): > 24.9 µM and 5.78 µM | GI50 (K-562 leukemia): 1370 nM and 3010 nM | GI50 (UACC-62 melanoma): 1910 nM | GI50 (NCI/ADR-RES ovarian): 1.58 µM and 6.13 µM | TGI (NCI/ADR-RES ovarian): 3.27 µM and 14.3 µM | TGI (LOX IMVI melanoma): 3.17 µM and 3.33 µM | GI50 (TK-10 renal): 1.77 µM and 12 µM | TGI (TK-10 renal): 3.2 µM and 24.9 µM | GI50 (CAKI-1 renal): 1420 nM and 3490 nM | TGI (CAKI-1 renal): 2.74 µM and 10.6 µM | TGI (NCI-H522 lung): 2.76 µM and 3.3 µM | TGI (PC-3 prostate): 2.85 µM and 9.48 µM | GI50 (OVCAR-5 ovarian): 1.65 µM and 6.19 µM | TGI (OVCAR-5 ovarian): 3.04 µM and 18.5 µM | TGI (MALME-3M melanoma): 3.05 µM and 5.92 µM | GI50 (OVCAR-8 ovarian): 423 nM and 1520 nM | TGI (OVCAR-8 ovarian): 1640 nM and 4190 nM | GI50 (ACHN renal): 1680 nM and 1850 nM | TGI (ACHN renal): 3.08 µM and 5.03 µM | TGI (BT-549 breast): 3.38 µM and 6.26 µM | GI50 (HOP-92 NSCLC): 1.62 µM and 5.71 µM | TGI (HOP-92 NSCLC): 3 µM and 14.1 µM | TGI (UO-31 renal): 2.79 µM and 5 µM | GI50 (SR leukemia): 2480 nM | GI50 (DU-145 prostate): 2.2 µM and 11.9 µM | TGI (DU-145 prostate): 3.76 µM and 24.3 µM | TGI (MDA-MB-231 breast): 2.54 µM and 4.52 µM | GI50 (A549 NSCLC): 1.77 µM and 6.26 µM | TGI (A549 NSCLC): 3.95 µM and 18.8 µM | TGI (SK-MEL-5 melanoma): 2.95 µM and 6.14 µM | GI50 (MOLT-4 leukemia): 253 nM and 1740 nM | TGI (HL-60(TB) leukemia): 434 nM and 847 nM | TGI (U251 CNS): 3.05 µM and 5.73 µM
